Measured values from patent US11241427B2, “Small molecule modulators of NR2F6 activity” (Regen Biopharma, Inc., priority 2015, dated 2022).

Target: T1, NR2F6 (ligand binding domain, amino acids 163-404) (Homo sapiens, UniProt P10588)
T1 construct: HIS (N, cleaved yes); FLAG (N, cleaved yes); TEV site (N, cleaved yes); made in house; host or cells: E. coli BL21 (DE3)
T1 sequence (P10588 163-404): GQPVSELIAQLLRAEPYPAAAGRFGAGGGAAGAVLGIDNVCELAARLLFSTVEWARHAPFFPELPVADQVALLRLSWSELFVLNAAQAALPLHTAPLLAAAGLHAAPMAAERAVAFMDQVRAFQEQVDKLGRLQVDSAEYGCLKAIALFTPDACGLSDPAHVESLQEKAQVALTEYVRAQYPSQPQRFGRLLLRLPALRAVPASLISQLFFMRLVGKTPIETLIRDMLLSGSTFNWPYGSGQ
Assay: Thermoshift analysis (TSA) of compound binding to NR2F6
Conditions: Table 1.1, 100 μM compound; for Tm: 0.5 mg/ml NR2F6, 1% DMSO, NR2F6 alone Tm 48 °C; for delta Tm: shift versus NR2F6 alone (Tm 48 °C)
Method: The binding interaction between target protein NR2F6 and 139 compounds selected from an in silico screen was assessed using thermoshift analysis (TSA). Thermoshift is a physical technique used to determine the melting temperature of a protein. The interaction of the ligand to the folded state of the protein shifts the melting temperature. In the experimental system used, the NR2F6 protein is mixed with the ligand and the fluorescent dye SYPRO Orange®. The fluorescence is monitored over temperature gradient between 20 and 95° C. with 0.5° C. increment. The dye binds to the hydrophobic regions of molten globules and denatured proteins resulting in an increase of fluorescence. A plot of the fluorescence is obtained and used to determine the melting temperature in absence and presence of ligand.
The ligand binding domain of NR2F6 (amino acids 163-404) was cloned for soluble expression in E. coli with an N-terminal HIS-FLAG-TEV-tag. Expression was performed in BL21 (DE3) cells. In brief, a 12L E. coli culture was induced with IPTG in logarithmic phase and further incubated over night at 18° C. Cells were harvested via centrifugation, washed with buffer and stored at […] until purification.
The purification procedure performed consists of HIS affinity chromatography, tag cleavage, negative affinity chromatography, size exclusion chromatography and ion exchange chromatography.
Thermoshift analysis was performed on 139 Compounds that were stored as powder in DMSO stocks. A reaction volume of 25 μl was used, with reaction temperatures being increased in 0.5 increments from 20-95° C. in 96 well, PCR plates (Hard-Shell®, HSP-9655). The control was NR2F6 protein alone in 1% DMSO. For performing the reaction, a reaction buffer comprising of the following was utilized: 20 mM HEPES pH 6.85, 150 mM NaCl, 10% Glycerin and 0.5 mM TCEP.
The following pipetting sequence was used: 1) Add appropriate volume of target enzyme in reaction buffer; 2) Add appropriate volume of dye SYPRO Orange® in reaction buffer; 3) Add inhibitor in 100% DMSO (1% final DMSO conc); 4) Measure fluorescence
Fluorescence was quantified using a CFX Connect™ Real-Time PCR Detection System (BioRad)
An increase in melting temperature is indicative for compound binding.

| Tm | delta Tm | Structure (SMILES) |
| --- | --- | --- |
| 48 °C | 0 °C | CCN=c1scc(-c2ccc3c(c2)NC(=O)CO3)n1N=C1CCCC1 [Cpd 137] |
| 46 °C | −2 °C | COc1ccc(/C=N/OCC(=O)NC(c2ccccc2)c2ccccc2)cc1OC [Cpd 138] |
| 48.5 °C | 0.5 °C | CC(=O)c1c(C)[nH]c(C(=O)OCC(=O)Nc2ccc(Cl)cc2[N+](=O)[O-])c1C [Cpd 139] |
